The values below come from patent US20220073536A1 (Rigel Pharmaceuticals, Inc., priority 2003, published 2022).

Assay [1] deals with cultured human mast cells (CHMC). As to the kind of experiment: CHMC low cell density IgE activation: tryptase assay. In kind it is cell-based. As to conditions: low cell density CHMC, IgE activation. The essentials: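 CHMC at 1000–1500 cells/well were preincubated 1 hr at 37° C., stimulated with anti-IgE for 30 minutes at 37° C., then pelleted. Supernatant tryptase was measured with a fluorogenic substrate after 30 min at room temperature, against un-stimulated control wells.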

The test system is the same in assay [2]. The assay is described as follows: CHMC low cell density ionomycin activation: tryptase assay. In kind it is cell-based. As to conditions: low cell density CHMC, read-out: LD Tryptase, CHMC, Iono, 3 pt.
Where [3] appears, read: tryptase release, 3 point, read-out: LD Tryptase, CHMC, IgE, 3 pt.
Where [4] appears, read: tryptase release, 8 point, read-out: LD Tryptase, CHMC, IgE, 8 pt.
Where [5] appears, read: Homo sapiens, Mast cell, tryptase release, 3 point, read-out: LD Tryptase, CHMC, IgE, 3 pt.
[6] abbreviates: Homo sapiens, Mast cell, tryptase release, 3 point.
The mark [7] stands for this setting: Homo sapiens, Mast cell, tryptase, 3 pt, read-out: LD Tryptase, CHMC, IgE, 3 pt.
The mark [8] stands for this setting: Homo sapiens, Mast cell, tryptase, 8 pt, read-out: LD Tryptase, CHMC, IgE, 8 pt.
Where [9] appears, read: Homo sapiens, Mast cell, tryptase, 3 pt.

With `COC(=O)Cn1ccc2ccc(Nc3ncc(F)c(Nc4ccc5c(c4)NC(=O)C(C)(C)O5)n3)cc21` [Compound 639, N4-(2,2-Dimethyl-3-oxo-4H-benz[1,4]oxazin-6-yl)-5-fluoro-N2-[1-(methoxycarbonylmethylene)indol-6-yl]-2,4-pyrimidinediamine], the IC50 in assay [1] (setting [3]) is less than 10 µM; in assay [1] (setting [4]) it was less than 10 µM; in assay [2] (tryptase release, 3 point), more than 10 µM.
As to `CNC(=O)COc1ccc(Nc2nc(Nc3ccc4ccn(CC(=O)OC)c4c3)ncc2F)cc1Cl` [Compound 640, N4-[3-Chloro-4-(N-methylamino)carbonylmethyleneoxyphenyl]-5-fluoro-N2-[1-(methoxycarbonylmethylene)indol-6-yl]-2,4-pyrimidinediamine], the IC50 in assay [1] (setting [3]) was less than 10 µM; in assay [1] (setting [4]), less than 10 µM; in assay [2] (tryptase release, 3 point) it was more than 10 µM.
As to `COC(=O)Cn1ccc2ccc(Nc3ncc(F)c(Nc4ccc(Cl)c(OC)c4)n3)cc21` [Compound 641, N4-(4-Chloro-3-methoxyphenyl)-5-fluoro-N2-[1-(methoxycarbonylmethylene)indol-6-yl]-2,4-pyrimidinediamine], the IC50 is less than 10 µM in assay [1] (setting [3]); less than 10 µM in assay [1] (setting [4]); less than 10 µM in assay [2] (tryptase release, 3 point).
`COC(=O)Cn1ccc2ccc(Nc3ncc(F)c(Nc4ccc5c(c4)OCCO5)n3)cc21` [Compound 642, N4-(3,4-Ethylenedioxyphenyl)-5-fluoro-N2-[1-(methoxycarbonylmethylene)indol-6-yl]-2,4-pyrimidinediamine]: the IC50 in assay [1] (setting [3]) is less than 10 µM; in assay [1] (setting [4]), less than 10 µM; in assay [2] (tryptase release, 3 point), more than 10 µM.
Turning to `COC(=O)Cn1ccc2cc(Nc3ncc(F)c(Nc4ccc5c(c4)NC(=O)C(C)(C)O5)n3)ccc21` [Compound 643, N4-(2,2-Dimethyl-3-oxo-4H-benz[1,4]oxazin-6-yl)-5-fluoro-N2-[1-(methoxycarbonylmethylene)indol-5-yl]-2,4-pyrimidinediamine], the IC50 in assay [1] (setting [3]) was less than 10 µM; in assay [1] (setting [4]) it was less than 10 µM; in assay [2] (tryptase release, 3 point) it was more than 10 µM.
As to `CNC(=O)COc1ccc(Nc2nc(Nc3ccc4c(ccn4CC(=O)OC)c3)ncc2F)cc1Cl` [Compound 644, N4-[3-Chloro-4-(N-methylamino)carbonylmethyleneoxyphenyl]-5-fluoro-N2-[1-(methoxycarbonylmethylene)indol-5-yl]-2,4-pyrimidinediamine], the IC50 in assay [1] (setting [3]) is less than 10 µM; in assay [1] (setting [4]), less than 10 µM; in assay [2] (tryptase release, 3 point), more than 10 µM.
In the case of `COC(=O)Cn1ccc2cc(Nc3ncc(F)c(Nc4ccc(OC)c(Cl)c4)n3)ccc21` [Compound 646, N4-(3-Chloro-4-methoxyphenyl)-5-fluoro-N2-[1-(methoxycarbonylmethylene)indol-5-yl]-2,4-pyrimidinediamine], the IC50 is less than 10 µM in assay [1] (setting [3]); less than 10 µM in assay [1] (setting [4]); more than 10 µM in assay [2] (tryptase release, 3 point).
`COC(=O)Cn1ccc2cc(Nc3ncc(F)c(Nc4ccc5c(c4)OCCO5)n3)ccc21` [Compound 647, N4-(3,4-Ethylenedioxyphenyl)-5-fluoro-N2-[1-(methoxycarbonylmethylene)indol-5-yl]-2,4-pyrimidinediamine]: the IC50 in assay [1] (setting [3]) was less than 10 µM; in assay [1] (setting [4]) it was less than 10 µM; in assay [2] (tryptase release, 3 point), more than 10 µM.
Take `CNC(=O)Cn1ccc2ccc(Nc3ncc(F)c(Nc4ccc5c(c4)OCCO5)n3)cc21` [Compound 649, N4-(3,4-Ethylenedioxyphenyl)-5-fluoro-N2-[1-(N-methylamino)carbonylmethyleneindol-6-yl]-2,4-pyrimidinediamine]: the IC50 in assay [1] (setting [3]) is less than 10 µM; in assay [1] (setting [4]) it was less than 10 µM; in assay [2] (tryptase release, 3 point), more than 10 µM.
In the case of `COc1ccc(N(C)c2nc(Cl)ncc2F)cn1` [Compound 657], the IC50 in assay [1] (setting [5]) and in assay [2] (setting [6]) was more than 10 µM each time.
Consider `CN(c1ccc(Cl)c(C(F)(F)F)c1)c1nc(Cl)ncc1F` [Compound 658], for which the IC50 in assay [1] (setting [5]) and in assay [2] (setting [6]) was more than 10 µM each time.
On to `COc1cc(N(C)c2nc(Cl)ncc2F)ccc1Cl` [Compound 659], for which the IC50 in assay [1] (setting [5]) and in assay [2] (setting [6]) was more than 10 µM in each case.
As to `COc1ccc(N(C)c2nc(Cl)ncc2F)cc1Cl` [Compound 660], the IC50 in assay [1] (setting [5]) and in assay [2] (setting [6]) was more than 10 µM each time.
On to `CNC(=O)Cn1ccc2ccc(Nc3ncc(F)c(Nc4ccc(OC(F)(F)F)c(Cl)c4)n3)cc21` [Compound 662, N4-(3-Chloro-4-trifluoromethoxyphenyl)-5-fluoro-N2-[1-(N-methylamino)carbonylmethyleneindol-6-yl]-2,4-pyrimidinediamine], for which the IC50 in assay [1] (setting [3]) was less than 10 µM; in assay [1] (setting [4]), less than 10 µM; in assay [2] (tryptase release, 3 point), more than 10 µM.
On to `CNC(=O)Cn1ccc2ccc(Nc3ncc(F)c(Nc4ccc(Cl)c(OC)c4)n3)cc21` [Compound 663, N4-(4-Chloro-3-methoxyphenyl)-5-fluoro-N2-[1-(N-methylamino)carbonylmethyleneindol-6-yl]-2,4-pyrimidinediamine], for which the IC50 in assay [1] (setting [3]) is less than 10 µM; in assay [2] (tryptase release, 3 point) it was more than 10 µM.
Turning to `CNC(=O)Cn1ccc2ccc(Nc3ncc(F)c(Nc4ccc(OC)c(Cl)c4)n3)cc21` [Compound 664, N4-(3-Chloro-4-methoxyphenyl)-5-fluoro-N2-[1-(N-methylamino)carbonylmethyleneindol-6-yl]-2,4-pyrimidinediamine], the IC50 in assay [1] (setting [3]) was less than 10 µM; in assay [1] (setting [4]), less than 10 µM; in assay [2] (tryptase release, 3 point), more than 10 µM.
As for `CNC(=O)Cn1ccc2ccc(Nc3ncc(F)c(Nc4ccc(C(=O)NC)c(Cl)c4)n3)cc21` [Compound 665, N4-[3-Chloro-4-(N-methylamino)carbonylphenyl]-5-fluoro-N2-[1-(N-methylamino)carbonylmethyleneindol-6-yl]-2,4-pyrimidinediamine], the IC50 in assay [1] (setting [3]) is less than 10 µM; in assay [2] (tryptase release, 3 point) it was more than 10 µM.
Consider `COc1ccc(Nc2nc(Cl)ncc2F)cc1Cl` [Compound 666], for which the IC50 in assay [1] (setting [5]) and in assay [2] (setting [6]) was more than 10 µM throughout.
Take `CCn1ncc2cc(Nc3ncc(F)c(Nc4ccc(OC)c(Cl)c4)n3)ccc21` [Compound 694]: the values for the IC50 in assay [1] (setting [7]), in assay [1] (setting [8]) and in assay [2] (setting [9]) were less than 10 µM, less than 10 µM and more than 10 µM, respectively.
On to `CCn1ncc2cc(Nc3ncc(F)c(Nc4ccc(Cl)c(Cl)c4)n3)ccc21` [Compound 695, N4-(3,4-Dichlorophenyl)-N2-(1-ethylindazol-5-yl)-5-fluoro-2,4-pyrimidinediamine], for which the IC50 in assay [1] (setting [7]) and in assay [2] (setting [9]) was more than 10 µM throughout.
In the case of `CCn1ncc2cc(Nc3ncc(F)c(Nc4ccc5c(c4)NC(=O)C(C)(C)O5)n3)ccc21` [Compound 696, N4-(2,2-Dimethyl-3-oxo-4H-benz[1,4]oxazin-6-yl)-N2-(1-ethylindazol-5-yl)-5-fluoro-2,4-pyrimidinediamine], the IC50 in assay [1] (setting [7]), in assay [1] (setting [8]) and in assay [2] (setting [9]) was less than 10 µM each time.
Turning to `CCn1ncc2cc(Nc3ncc(F)c(Nc4ccc(F)c(OC)c4)n3)ccc21` [Compound 697, N2-(1-Ethylindazol-5-yl)-5-fluoro-N4-(4-fluoro-3-methoxyphenyl)-2,4-pyrimidinediamine], the figures for the IC50 in assay [1] (setting [7]), in assay [1] (setting [8]) and in assay [2] (setting [9]) were less than 10 µM, less than 10 µM and more than 10 µM, respectively.
Take `CCn1ncc2ccc(Nc3ncc(F)c(Nc4ccc(OC)c(Cl)c4)n3)cc21` [Compound 698, N4-(3-Chloro-4-methoxyphenyl)-N2-(1-ethylindazol-6-yl)-5-fluoro-2,4-pyrimidinediamine]: the IC50 in assay [1] (setting [7]) is less than 10 µM; in assay [1] (setting [8]), less than 10 µM; in assay [2] (setting [9]) it was more than 10 µM.
Consider `CCn1ncc2ccc(Nc3ncc(F)c(Nc4ccc(Cl)c(Cl)c4)n3)cc21` [Compound 699, N4-(3,4-Dichlorophenyl)-N2-(1-ethylindazol-6-yl)-5-fluoro-2,4-pyrimidinediamine], for which the IC50 in assay [1] (setting [7]) and in assay [2] (setting [9]) was less than 10 µM each time.
As for `CCn1ncc2ccc(Nc3ncc(F)c(Nc4ccc5c(c4)NC(=O)C(C)(C)O5)n3)cc21` [Compound 700, N4-(2,2-Dimethyl-3-oxo-4H-benz[1,4]oxazin-6-yl)-N2-(1-ethylindazol-6-yl)-5-fluoro-2,4-pyrimidinediamine], the IC50 in assay [1] (setting [7]), in assay [1] (setting [8]) and in assay [2] (setting [9]) was less than 10 µM throughout.
For the compound `CCn1ncc2ccc(Nc3ncc(F)c(Nc4ccc(F)c(OC)c4)n3)cc21` [Compound 701, N2-(1-Ethylindazol-6-yl)-5-fluoro-N4-(4-fluoro-3-methoxyphenyl)-2,4-pyrimidinediamine], the IC50 in assay [1] (setting [7]) and in assay [2] (setting [9]) was less than 10 µM in each case.
With `CCCn1ncc2ccc(Nc3ncc(F)c(Nc4ccc(OC)c(Cl)c4)n3)cc21` [Compound 706, N4-(3-Chloro-4-methoxyphenyl)-5-fluoro-N2-(1-n-propylindazol-6-yl)-2,4-pyrimidinediamine], the IC50 in assay [1] (setting [8]) and in assay [2] (setting [9]) was less than 10 µM each time.
`CCn1cc2ccc(Nc3ncc(F)c(Nc4ccc5c(c4)NC(=O)C(C)(C)O5)n3)cc2n1` [Compound 761, N4-(2,2-Dimethyl-3-oxo-4H-benz[1,4]oxazin-6-yl)-N2-(2-ethylindazol-6-yl)-5-fluoro-2,4-pyrimidinediamine]: the IC50 in assay [1] (setting [7]) was less than 10 µM; in assay [1] (setting [8]) it was less than 10 µM; in assay [2] (setting [9]) it was more than 10 µM.
